Results taken from ChEMBL document CHEMBL2176885, “Structural basis for the potent and selective inhibition of casein kinase 1 epsilon” (J Med Chem, 2012).
Substitutions are numbered along the chain they refer to.

Key:
[1] = target: Casein kinase I isoform delta (Homo sapiens) (UniProt P48730); assay: Binding affinity to wild type human CK1delta (1-294 amino acids) assessed as change in melting temperature by differential scanning fluorimetry
[2] = system: T1, Casein kinase I isoform epsilon (Homo sapiens), P49674 [K69R]; assay: Binding affinity to human CK1epsilon K69R mutant assessed as change in melting temperature by differential scanning fluorimetry
T1 sequence (whole entry): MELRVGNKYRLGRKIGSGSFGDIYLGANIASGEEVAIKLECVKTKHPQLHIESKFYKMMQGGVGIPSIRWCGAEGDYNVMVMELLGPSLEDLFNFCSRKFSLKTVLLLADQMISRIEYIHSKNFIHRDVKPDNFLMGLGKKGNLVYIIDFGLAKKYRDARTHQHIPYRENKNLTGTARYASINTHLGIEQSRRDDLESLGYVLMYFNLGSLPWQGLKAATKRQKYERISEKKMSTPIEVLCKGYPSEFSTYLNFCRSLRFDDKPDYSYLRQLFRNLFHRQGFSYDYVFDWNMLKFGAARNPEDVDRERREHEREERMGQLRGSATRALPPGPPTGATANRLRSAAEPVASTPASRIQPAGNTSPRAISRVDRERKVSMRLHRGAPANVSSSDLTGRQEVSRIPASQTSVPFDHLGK

[3] = system: T2, Casein kinase I isoform epsilon (Homo sapiens), P49674 [S67T]; assay: Binding affinity to human CK1epsilon S67T mutant assessed as change in melting temperature by differential scanning fluorimetry
T2 sequence (whole entry): T1 sequence (whole entry) with S67T, R69K

[4] = system: T3, Casein kinase I isoform epsilon (Homo sapiens), P49674 [F55I]; assay: Binding affinity to human CK1epsilon F55I mutant assessed as change in melting temperature by differential scanning fluorimetry
T3 sequence (whole entry): T1 sequence (whole entry) with F55I, R69K

[5] = system: T4, Casein kinase I isoform delta (Homo sapiens), P48730 [I55F]; assay: Binding affinity to human CK1delta I55F mutant assessed as change in melting temperature by differential scanning fluorimetry
T4 sequence (whole entry): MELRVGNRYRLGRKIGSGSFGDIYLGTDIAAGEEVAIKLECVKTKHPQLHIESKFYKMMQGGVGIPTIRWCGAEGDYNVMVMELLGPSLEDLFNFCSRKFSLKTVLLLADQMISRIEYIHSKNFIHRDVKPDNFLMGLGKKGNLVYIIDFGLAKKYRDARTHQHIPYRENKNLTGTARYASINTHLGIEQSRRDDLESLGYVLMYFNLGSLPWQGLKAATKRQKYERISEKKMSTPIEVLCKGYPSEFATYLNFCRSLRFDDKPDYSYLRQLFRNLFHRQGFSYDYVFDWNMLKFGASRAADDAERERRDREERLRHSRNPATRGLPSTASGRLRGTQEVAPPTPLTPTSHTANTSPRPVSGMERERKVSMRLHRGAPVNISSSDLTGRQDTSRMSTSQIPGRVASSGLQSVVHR

[6] = system: T5, Casein kinase I isoform delta (Homo sapiens), P48730 [T67S]; assay: Binding affinity to human CK1delta T67S mutant assessed as change in melting temperature by differential scanning fluorimetry
T5 sequence (whole entry): T4 sequence (whole entry) with F55I, T67S

[7] = target: Casein kinase I isoform epsilon (Homo sapiens) (UniProt P49674); assay: Binding affinity to wild type human CK1epsilon (1-294 amino acids) assessed as change in melting temperature by differential scanning fluorimetry
[8] = system: T6, Casein kinase I isoform delta (Homo sapiens), P48730 [R69K]; assay: Binding affinity to human CK1delta R69K mutant assessed as change in melting temperature by differential scanning fluorimetry
T6 sequence (whole entry): T4 sequence (whole entry) with F55I, R69K

Chain of Casein kinase I isoform epsilon (Homo sapiens) (P49674 whole entry, looked up, the tested form may be a part, canonical isoform): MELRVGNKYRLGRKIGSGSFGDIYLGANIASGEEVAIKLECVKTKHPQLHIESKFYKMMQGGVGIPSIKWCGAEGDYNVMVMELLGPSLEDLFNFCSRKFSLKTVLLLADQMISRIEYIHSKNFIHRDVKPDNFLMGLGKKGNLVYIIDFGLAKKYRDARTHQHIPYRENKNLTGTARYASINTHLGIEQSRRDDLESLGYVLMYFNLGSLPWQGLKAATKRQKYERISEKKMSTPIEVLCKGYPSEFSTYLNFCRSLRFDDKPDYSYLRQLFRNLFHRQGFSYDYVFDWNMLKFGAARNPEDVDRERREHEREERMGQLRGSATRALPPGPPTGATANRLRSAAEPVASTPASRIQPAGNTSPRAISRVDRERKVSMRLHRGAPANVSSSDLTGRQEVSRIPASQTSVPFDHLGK
Chain of Casein kinase I isoform delta (Homo sapiens) (P48730 whole entry, looked up, the tested form may be a part, canonical isoform): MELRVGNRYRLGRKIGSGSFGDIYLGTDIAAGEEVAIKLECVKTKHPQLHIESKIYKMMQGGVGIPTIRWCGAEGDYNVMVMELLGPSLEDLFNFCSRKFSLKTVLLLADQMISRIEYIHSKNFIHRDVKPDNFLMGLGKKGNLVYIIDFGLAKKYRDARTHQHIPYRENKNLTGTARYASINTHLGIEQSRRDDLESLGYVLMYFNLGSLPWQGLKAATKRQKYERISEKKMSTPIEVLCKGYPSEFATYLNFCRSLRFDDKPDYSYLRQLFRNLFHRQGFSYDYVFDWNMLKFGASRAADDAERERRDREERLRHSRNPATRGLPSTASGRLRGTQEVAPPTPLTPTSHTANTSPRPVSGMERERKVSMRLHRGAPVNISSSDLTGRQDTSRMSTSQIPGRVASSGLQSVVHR

ΔTm [1] [°C]	ΔTm [2] [°C]	ΔTm [3] [°C]	ΔTm [4] [°C]	ΔTm [5] [°C]	ΔTm [6] [°C]	ΔTm [7] [°C]	ΔTm [8] [°C]	Compound
9.6	8.6	8.6	10.4	9.6	9.6	8.6	9.6	Nc1nccc(-c2c(-c3ccc(F)cc3)ncn2C2CCCCC2)n1
4.8	11.5	11.5	6.4	13.2	4.8	11.5	4.8	Nc1ncnc2c1c(COc1cccc(Cl)c1)nn2C1CCOCC1
